Patent publication US4153710A, “N-(4-[2-(pyrazole-1-carbonamide)-ethyl]-benzenesulphonyl)-urea” (Starogardzkie Zaklady Farmaceutyczne POLFA, priority 1976, dated 1979)

System: blood-glucose concentration
Assay: Decrease in blood-glucose concentration in rats after oral dose (Table 1; ED30 rats Table 2)
Format: in vivo
Settings: Rattus norvegicus, po; for inhibition in vivo at 0.25 mg/kg: p.os. 0.25 mg/kg; for inhibition in vivo at 0.5 mg/kg: p.os. 0.5 mg/kg; for inhibition in vivo at 1 mg/kg: p.os. 1 mg/kg; for inhibition in vivo at 2 mg/kg: p.os. 2 mg/kg; for inhibition in vivo at 4 mg/kg: p.os. 4 mg/kg; for inhibition in vivo at 10 mg/kg: p.os. 10 mg/kg; for ED50: p.os., Table 1; for inhibition in vivo at 50 mg/kg: p.os. 50 mg/kg
Source text: The hypoglycemic activity of N-{4-[2-(pyrazole-1-carbonamide)-ethyl]-benzenesulphonyl}-ureas prepared according to the present invention can be noticed after their oral administration to mice, rats, rabbits and people and when determining the glucose concentration in blood with a known enzymatic method using glucose oxidase.
The exemplary comparison of effective doses (ED30) and the effect of oral dose size of the compounds prepared according to the present invention with Glibornuride, which is distinguished by its high effectiveness and good tolerance when administered to people, on the glucose concentration in the blood of rats, is given in Table 1.

SMILES	inhibition in vivo at 1 mg/kg (1 h)	inhibition in vivo at 1 mg/kg (3 h)	inhibition in vivo at 1 mg/kg (6 h)	inhibition in vivo at 2 mg/kg (1 h)	inhibition in vivo at 2 mg/kg (3 h)	inhibition in vivo at 2 mg/kg (6 h)	inhibition in vivo at 4 mg/kg (1 h)	inhibition in vivo at 4 mg/kg (3 h)	inhibition in vivo at 10 mg/kg (1 h)	inhibition in vivo at 10 mg/kg (3 h)	inhibition in vivo at 10 mg/kg (6 h)	ED50	inhibition in vivo at 4 mg/kg (6 h)	further results
O=C(NC1CCCCC1)NS(=O)(=O)c1ccc(CCNC(=O)n2cccn2)cc1 [compound 1]	27%	27%	14%	23%	34%	11%	19%	37%	50%	52%	29%	1.8 mg/kg	–	inhibition in vivo at 0.25 mg/kg (1 h): 12%; inhibition in vivo at 0.25 mg/kg (3 h): 19%; inhibition in vivo at 0.25 mg/kg (6 h): 0%; inhibition in vivo at 0.5 mg/kg (1 h): 21%; inhibition in vivo at 0.5 mg/kg (3 h): 19%; inhibition in vivo at 0.5 mg/kg (6 h): 11%
Cc1ccn(C(=O)NCCc2ccc(S(=O)(=O)NC(=O)NC3CCCCC3)cc2)n1 [compound 2]	19%	9%	0%	23%	27%	14%	30%	45%	–	–	–	2.2 mg/kg	21%	–
Cc1cnn(C(=O)NCCc2ccc(S(=O)(=O)NC(=O)NC3CCCCC3)cc2)c1 [compound 3]	20%	18%	4%	35%	28%	2%	33%	32%	52%	48%	37%	1.9 mg/kg	–	–
CCc1cnn(C(=O)NCCc2ccc(S(=O)(=O)NC(=O)NC3CCCCC3)cc2)c1 [compound 4]	28%	4%	0%	46%	18%	1%	40%	32%	55%	39%	25%	1.6 mg/kg	–	–
O=C(NC1CCCCC1)NS(=O)(=O)c1ccc(CCNC(=O)n2cc(Cl)cn2)cc1 [compound 5]	–	–	–	–	–	–	–	–	16%	0%	–	–	–	inhibition in vivo at 50 mg/kg (1 h): 38%; inhibition in vivo at 50 mg/kg (3 h): 36%; inhibition in vivo at 50 mg/kg (6 h): 12%
Cc1cc(C)n(C(=O)NCCc2ccc(S(=O)(=O)NC(=O)NC3CCCCC3)cc2)n1 [compound 6]	–	–	–	–	–	–	18%	33%	23%	40%	35%	3.5 mg/kg	23%	–
Cc1cn(C(=O)NCCc2ccc(S(=O)(=O)NC(=O)NC3CCCCC3)cc2)nc1C [compound 7]	–	–	–	18%	24%	19%	–	–	37%	54%	26%	3.3 mg/kg	–	inhibition in vivo at 0.25 mg/kg (1 h): 11%; inhibition in vivo at 0.25 mg/kg (3 h): 17%; inhibition in vivo at 0.25 mg/kg (6 h): 11%; inhibition in vivo at 0.5 mg/kg (1 h): 19%; inhibition in vivo at 0.5 mg/kg (3 h): 29%; inhibition in vivo at 0.5 mg/kg (6 h): 20%
CCc1nn(C(=O)NCCc2ccc(S(=O)(=O)NC(=O)NC3CCCCC3)cc2)cc1C [compound 8]	17%	18%	15%	–	–	–	19%	31%	27%	45%	25%	4 mg/kg	15%	–
Cc1nn(C(=O)NCCc2ccc(S(=O)(=O)NC(=O)NC3CCCCC3)cc2)cc1Cl [compound 9]	–	–	–	–	–	–	–	–	24%	7%	0%	–	–	–
Cc1nn(C(=O)NCCc2ccc(S(=O)(=O)NC(=O)NC3CCCCC3)cc2)c(C)c1C [compound 10]	–	–	–	–	–	–	24%	35%	35%	49%	17%	4 mg/kg	28%	inhibition in vivo at 50 mg/kg (1 h): 48%; inhibition in vivo at 50 mg/kg (3 h): 62%; inhibition in vivo at 50 mg/kg (6 h): 52%
CCc1c(C)nn(C(=O)NCCc2ccc(S(=O)(=O)NC(=O)NC3CCCCC3)cc2)c1C [compound 11]	–	–	–	–	–	–	16%	27%	29%	53%	–	4.8 mg/kg	3%	inhibition in vivo at 50 mg/kg (1 h): 57%; inhibition in vivo at 50 mg/kg (3 h): 60%; inhibition in vivo at 50 mg/kg (6 h): 53%
CCCc1c(C)nn(C(=O)NCCc2ccc(S(=O)(=O)NC(=O)NC3CCCCC3)cc2)c1C [compound 12]	–	–	–	–	–	–	–	–	14%	–	10%	–	–	inhibition in vivo at 50 mg/kg (1 h): 22%; inhibition in vivo at 50 mg/kg (3 h): 39%; inhibition in vivo at 50 mg/kg (6 h): 32%
CCCCc1c(C)nn(C(=O)NCCc2ccc(S(=O)(=O)NC(=O)NC3CCCCC3)cc2)c1C [compound 13]	–	–	–	–	–	–	–	–	0%	–	–	–	–	inhibition in vivo at 50 mg/kg (1 h): 18%; inhibition in vivo at 50 mg/kg (3 h): 27%; inhibition in vivo at 50 mg/kg (6 h): 3%
Cc1nn(C(=O)NCCc2ccc(S(=O)(=O)NC(=O)NC3CCCCC3)cc2)c(C)c1Cl [compound 14]	11%	21%	7%	14%	24%	14%	21%	29%	–	–	–	5 mg/kg	11%	–
O=C(NC1CCCC1)NS(=O)(=O)c1ccc(CCNC(=O)n2cccn2)cc1 [compound 15]	–	–	–	–	–	–	14%	5%	20%	16%	7%	–	–	–
Cc1ccn(C(=O)NCCc2ccc(S(=O)(=O)NC(=O)NC3CCCC3)cc2)n1 [compound 16]	–	–	–	–	–	–	18%	14%	16%	20%	–	–	–	–
Cc1cnn(C(=O)NCCc2ccc(S(=O)(=O)NC(=O)NC3CCCC3)cc2)c1 [compound 17]	–	–	–	29%	16%	5%	41%	41%	41%	51%	28%	2.3 mg/kg	23%	–
